Experimental data taken from ChEMBL document CHEMBL1201862, “PubChem BioAssay data set” (2004).
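Method: 48-hour compound exposure of cells in 96-well plates, five concentrations, linear interpolation of endpoints. At the GI50, growth is halved.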 Activity calls are given as the source filed them. No stated cut-off is given here; in the data, active = GI50 up to about 1.1 µM and inactive = higher.

Legend:
Experiment in all cases: inhibition of tumour cell growth, NCI panel, 48 h
SNB-75 = tested on: SNB-75
HOP-92 = tested on: HOP-92
HOP-62 = tested on: HOP-62
KM-20L2 = tested on: KM-20L2
CCRF-CEM = tested on: CCRF-CEM
A549 = tested on: A549
OVCAR-4 = tested on: OVCAR-4
MDA-MB-231 = tested on: MDA-MB-231
HT-29 = tested on: HT-29
U-251 = tested on: U-251
786-0 = tested on: 786-0
COLO 205 = tested on: COLO 205
SR = tested on: SR
MOLT-4 = tested on: MOLT-4
DMS-273 = tested on: DMS-273
HL-60 = tested on: HL-60
HOP-18 = tested on: HOP-18
A498 = tested on: A498
MDA-N = tested on: MDA-N
UACC-62 = tested on: UACC-62
XF498 = tested on: XF498
IGROV-1 = tested on: IGROV-1
NCI-H23 = tested on: NCI-H23
RXF 393 = tested on: RXF 393
DU-145 = tested on: DU-145
M19-MEL = tested on: M19-MEL
NCI-H226 = tested on: NCI-H226
DMS-114 = tested on: DMS-114
KM12 = tested on: KM12
MCF7 = tested on: MCF7
SK-MEL-28 = tested on: SK-MEL-28
NCI/ADR-RES = tested on: NCI/ADR-RES
HCC 2998 = tested on: HCC 2998
SNB-78 = tested on: SNB-78
SF-268 = tested on: SF-268
SW-620 = tested on: SW-620
Malme-3M = tested on: Malme-3M
RPMI-8226 = tested on: RPMI-8226
EKVX = tested on: EKVX
MDA-MB-435 = tested on: MDA-MB-435
BT-549 = tested on: BT-549
ACHN = tested on: ACHN
TK-10 = tested on: TK-10
SK-MEL-5 = tested on: SK-MEL-5
UACC-257 = tested on: UACC-257
M14 = tested on: M14
OVCAR-5 = tested on: OVCAR-5
UO-31 = tested on: UO-31
DLD-1 = tested on: DLD-1
SN12C = tested on: SN12C
SK-MEL-2 = tested on: SK-MEL-2
HCT-15 = tested on: HCT-15
SK-OV-3 = tested on: SK-OV-3
SF-539 = tested on: SF-539
NCI-H522 = tested on: NCI-H522
PC-3 = tested on: PC-3
T47D = tested on: T47D
LOX IMVI = tested on: LOX IMVI
K562 = tested on: K562
LXFL 529 = tested on: LXFL 529
OVCAR-3 = tested on: OVCAR-3
SNB-19 = tested on: SNB-19
CAKI-1 = tested on: CAKI-1
HCT-116 = tested on: HCT-116
NCI-H460 = tested on: NCI-H460
OVCAR-8 = tested on: OVCAR-8
SF-295 = tested on: SF-295

In the case of CCCCCCCCCC[S+]([O-])CC(CO)NC(=O)/C=C/c1c(C)nc(O)nc1O (stereo not given), the GI50 (SNB-75) is reported as 0.272 µM (active), the GI50 (HOP-92) is reported as 0.189 µM (active) and the GI50 (HOP-62) is reported as 1.06 µM (active). For the same compound, the GI50 (KM-20L2) was 0.695 µM (active), the GI50 (CCRF-CEM) was 0.136 µM (active) and the GI50 (A549) was 2.22 µM (inactive). For the same compound, the GI50 (OVCAR-4) was 0.199 µM (active), the GI50 (MDA-MB-231) was 2.97 µM (inactive) and the GI50 (HT-29) was 1.36 µM (inactive). The GI50 (U-251) was 0.132 µM (active), the GI50 (786-0) was 10.9 µM (inactive) and the GI50 (COLO 205) was 0.247 µM (active). For the same compound, the GI50 (SR) was 65.2 µM (inactive), the GI50 (MOLT-4) was 0.518 µM (active) and the GI50 (DMS-273) was 0.37 µM (active). The GI50 (HL-60) was 0.815 µM (active), the GI50 (HOP-18) was 1.49 µM (inactive) and the GI50 (A498) was 1.09 µM (active). For the same compound, the GI50 (MDA-N) was 25.1 µM (inactive), the GI50 (UACC-62) was 0.628 µM (active) and the GI50 (XF498) was 0.0376 µM (active). For the same compound, the GI50 (IGROV-1) was 0.959 µM (active), the GI50 (NCI-H23) was 0.504 µM (active) and the GI50 (RXF 393) was 0.474 µM (active). The GI50 (DU-145) was 43.4 µM (inactive), the GI50 (M19-MEL) was 0.475 µM (active) and the GI50 (NCI-H226) was 0.8 µM (active). For the same compound, the GI50 (DMS-114) was 0.152 µM (active), the GI50 (KM12) was 0.202 µM (active) and the GI50 (MCF7) was 0.252 µM (active). For the same compound, the GI50 (SK-MEL-28) was 1.21 µM (inactive), the GI50 (NCI/ADR-RES) was 4.43 µM (inactive) and the GI50 (HCC 2998) was 0.244 µM (active). For the same compound, the GI50 (SNB-78) was 0.718 µM (active), the GI50 (SF-268) was 0.149 µM (active) and the GI50 (SW-620) was 0.535 µM (active). For the same compound, the GI50 (Malme-3M) was 0.47 µM (active), the GI50 (RPMI-8226) was 1.04 µM (active) and the GI50 (EKVX) was 0.774 µM (active). The GI50 (MDA-MB-435) was 14 µM (inactive), the GI50 (BT-549) was 10.5 µM (inactive) and the GI50 (ACHN) was 13.4 µM (inactive). For the same compound, the GI50 (TK-10) was 1.76 µM (inactive), the GI50 (SK-MEL-5) was 0.918 µM (active) and the GI50 (UACC-257) was 1.33 µM (inactive). For the same compound, the GI50 (M14) was 11 µM (inactive), the GI50 (OVCAR-5) was 1.71 µM (inactive) and the GI50 (UO-31) was 1.28 µM (inactive). The GI50 (DLD-1) was 0.476 µM (active), the GI50 (SN12C) was 0.126 µM (active) and the GI50 (SK-MEL-2) was 0.721 µM (active). For the same compound, the GI50 (HCT-15) was 1.28 µM, the GI50 (SK-OV-3) was 1.38 µM (inactive) and the GI50 (SF-539) was 0.484 µM (active). For the same compound, the GI50 (NCI-H522) was 0.0938 µM (active), the GI50 (PC-3) was 1.43 µM (inactive) and the GI50 (T47D) was 20.8 µM (inactive). For the same compound, the GI50 (LOX IMVI) was 0.877 µM (active) and the GI50 (K562) was 0.501 µM (active).
CCOC(=O)C1(C)CCC(C(=O)OC)C1=O (stereo not given) was tested, and the GI50 (SNB-75) was > 100 µM (inactive), the GI50 (HOP-92) was > 100 µM (inactive) and the GI50 (HOP-62) was > 100 µM (inactive). The GI50 (KM-20L2) was > 100 µM (inactive), the GI50 (LXFL 529) was > 100 µM (inactive) and the GI50 (CCRF-CEM) was 21.9 µM (inactive). The GI50 (A549) was > 100 µM (inactive), the GI50 (OVCAR-4) was > 100 µM (inactive) and the GI50 (HT-29) was 65.5 µM (inactive). For the same compound, the GI50 (OVCAR-3) was > 100 µM (inactive), the GI50 (SNB-19) was > 100 µM (inactive) and the GI50 (U-251) was 67.1 µM (inactive). The GI50 (786-0) was > 100 µM (inactive), the GI50 (COLO 205) was 44.1 µM (inactive) and the GI50 (CAKI-1) was > 100 µM (inactive). For the same compound, the GI50 (SR) was 24.6 µM (inactive), the GI50 (MOLT-4) was 87.9 µM (inactive) and the GI50 (HL-60) was 53.1 µM (inactive). For the same compound, the GI50 (HOP-18) was > 100 µM (inactive), the GI50 (A498) was > 100 µM (inactive) and the GI50 (UACC-62) was > 100 µM (inactive). For the same compound, the GI50 (XF498) was > 100 µM (inactive), the GI50 (IGROV-1) was > 100 µM (inactive) and the GI50 (NCI-H23) was > 100 µM (inactive). For the same compound, the GI50 (RXF 393) was > 100 µM (inactive), the GI50 (M19-MEL) was 73.3 µM (inactive) and the GI50 (NCI-H226) was > 100 µM (inactive). For the same compound, the GI50 (DMS-114) was 19.8 µM (inactive), the GI50 (KM12) was > 100 µM (inactive) and the GI50 (SK-MEL-28) was > 100 µM (inactive). The GI50 (HCC 2998) was 75.3 µM (inactive), the GI50 (SNB-78) was > 100 µM (inactive) and the GI50 (SF-268) was > 100 µM (inactive). The GI50 (HCT-116) was 57 µM (inactive), the GI50 (Malme-3M) was > 100 µM (inactive) and the GI50 (RPMI-8226) was > 100 µM (inactive). The GI50 (EKVX) was > 100 µM (inactive), the GI50 (ACHN) was > 100 µM (inactive) and the GI50 (TK-10) was > 100 µM (inactive). The GI50 (SK-MEL-5) was > 100 µM (inactive), the GI50 (UACC-257) was > 100 µM (inactive) and the GI50 (M14) was > 100 µM (inactive). For the same compound, the GI50 (OVCAR-5) was > 100 µM (inactive), the GI50 (UO-31) was > 100 µM (inactive) and the GI50 (DLD-1) was 57.4 µM (inactive). For the same compound, the GI50 (SN12C) was 42.9 µM (inactive), the GI50 (SK-MEL-2) was > 100 µM (inactive) and the GI50 (HCT-15) was 20.2 µM. The GI50 (NCI-H460) was 15.3 µM (inactive), the GI50 (SK-OV-3) was > 100 µM (inactive) and the GI50 (SF-539) was > 100 µM (inactive). For the same compound, the GI50 (OVCAR-8) was > 100 µM (inactive), the GI50 (NCI-H522) was 17.1 µM (inactive) and the GI50 (SF-295) was > 100 µM (inactive). The GI50 (LOX IMVI) was 18.1 µM (inactive) and the GI50 (K562) was 32.8 µM (inactive).
